Test results as given in PubChem BioAssay (NCI).
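Values below derive from 48-hour exposures of cells grown in 96-well plates, with endpoints linearly interpolated between the two concentrations bracketing the appropriate inhibition level. GI50: concentration for 50% inhibition of growth. TGI: total growth inhibition.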

How the values were obtained:
Assay in all cases: inhibition of tumour cell growth, NCI panel, 48 h
[1] = test system: A549 NSCLC
[2] = test system: DU-145 prostate
[3] = test system: MALME-3M melanoma
[4] = test system: MDA-MB-231 breast
[5] = test system: NCI-H460 lung
[6] = test system: OVCAR-5 ovarian
[7] = test system: OVCAR-8 ovarian
[8] = test system: RPMI-8226 leukemia
[9] = test system: SW-620 colon
[10] = test system: UO-31 renal

## O=C(C#Cc1ccccc1)C1=Cc2ccccc2OC1
[1]
  TGI: > 37.6 µM
[2]
  TGI: 20.7 µM
[3]
  TGI: 13.2 µM
[4]
  TGI: 10.5 µM
[5]
  TGI: 23.7 µM
[6]
  TGI: 15 µM
[7]
  TGI: 5.85 µM
[8]
  TGI: 58.7 µM
[9]
  TGI: 9.84 µM
[10]
  TGI: 5.34 µM

## O=C1C(=O)c2ccccc2C(O)=C1CCCc1ccc(C2CCCCC2)cc1
[1]
  GI50: 3.93 µM
  TGI: > 100 µM
[2]
  GI50: 5.17 µM
  TGI: 36.5 µM
[3]
  GI50: 3.55 µM
  TGI: 51 µM
[4]
  GI50: 10.4 µM
  TGI: 31 µM
[5]
  GI50: 2.78 µM
  TGI: 10.3 µM
[6]
  GI50: 17 µM
  TGI: 42.2 µM
[7]
  GI50: 6.01 µM
  TGI: > 100 µM
[8]
  GI50: 1.8 µM
  TGI: 23.7 µM
[9]
  GI50: 4.36 µM
  TGI: 19.5 µM
[10]
  GI50: 5 µM
  TGI: 23.2 µM

## CC1(C)OC(=O)C(C#N)=C1C[n+]1ccccc1
[2]
  TGI: > 10 µM
[3]
  TGI: > 10 µM
[4]
  TGI: > 10 µM
[5]
  TGI: > 10 µM
[6]
  TGI: > 10 µM
[7]
  TGI: > 10 µM
[8]
  TGI: > 10 µM
[9]
  TGI: > 10 µM
[10]
  TGI: > 10 µM

## ClCc1ccccc1Cn1cnc2c(Cl)ncnc21
[1]
  GI50: 7.73 µM
  TGI: 25.8 µM
[2]
  GI50: 5.65 µM
  TGI: 34.4 µM
[4]
  GI50: 3.04 µM
  TGI: 7.41 µM
[5]
  GI50: 15.4 µM
  TGI: 44.5 µM
[6]
  GI50: 2.46 µM
  TGI: 6.53 µM
[7]
  GI50: 2.22 µM
  TGI: 5.21 µM
[8]
  GI50: 14.1 µM
  TGI: 40.6 µM
[9]
  GI50: 1.78 µM
  TGI: 5.04 µM
[10]
  GI50: 2.65 µM
  TGI: 10.4 µM

## COC1=CC(c2ccc[nH]2)=N/C1=C\c1[nH]c(C)c(CC(=O)OCc2ccccc2)c1C
[1]
  GI50: 0.361 µM
  TGI: 6.05 µM
[2]
  GI50: 0.324 µM
  TGI: 10.9 µM
[3]
  GI50: 0.578 µM
  TGI: 2.1 µM
[4]
  GI50: 0.144 µM
  TGI: 0.859 µM
[5]
  GI50: 0.327 µM
  TGI: 1.72 µM
[6]
  GI50: 1.11 µM
  TGI: 5.38 µM
[7]
  GI50: 0.362 µM
  TGI: 1.27 µM
[9]
  GI50: 0.366 µM
  TGI: 1.79 µM
[10]
  GI50: 0.193 µM
  TGI: 0.398 µM

## CC(=O)NC(CSC1=C2NC(=O)\C=C/C=C/C=C\C(C)C(O)CC(=O)/C(C)=C\CC(O)/C=C/C(C)C(O)C(C)C=C(C)C(=O)c3c(O)c(C)cc(c3C1=O)C2=O)C(=O)O (stereo unspecified)
[1]
  TGI: > 100 µM
[2]
  TGI: > 100 µM
[3]
  TGI: > 100 µM
[4]
  TGI: 82.7 µM
[5]
  TGI: > 100 µM
[6]
  TGI: > 100 µM
[7]
  TGI: > 100 µM
[9]
  TGI: > 100 µM
[10]
  TGI: > 100 µM

## CC(=O)OC12c3ccccc3-c3ccccc3C1C(C(=O)O)C2C(=O)O (stereo unspecified)
[2]
  TGI: > 10 µM
[3]
  TGI: 3.09 µM
[4]
  TGI: > 10 µM
[5]
  TGI: > 10 µM
[6]
  TGI: > 10 µM
[7]
  TGI: > 10 µM
[8]
  TGI: > 10 µM
[9]
  TGI: > 10 µM
[10]
  TGI: > 10 µM

## CCCCCCCC(=O)SCC/C=C/[C@@H]1CC(=O)NCc2nc(cs2)C2=N[C@@](C)(CS2)C(=O)N[C@@H](C(C)C)C(=O)N1
[1]
  GI50: 0.0273 µM
  TGI: 1.53 µM
[2]
  GI50: < 0.01 µM
  TGI: > 100 µM
[4]
  GI50: 0.0286 µM
  TGI: 31.5 µM
[5]
  GI50: 0.0335 µM
  TGI: > 100 µM
[6]
  GI50: 0.0118 µM
  TGI: > 100 µM
[7]
  GI50: 0.0234 µM
  TGI: 16.7 µM
[8]
  GI50: 0.0283 µM
  TGI: > 100 µM
[9]
  GI50: 0.0645 µM
  TGI: 5.57 µM
[10]
  GI50: 0.741 µM
  TGI: 21.2 µM
